Experimental data published in publication PMC10608878, “Synthesis and Antiproliferative Activity of 2,6-Disubstituted Imidazo[4,5-b]pyridines Prepared by Suzuki Cross Coupling” (Molecules, 2023).
Read-outs that look alike come from different tables or passages of the source.

Tests used:
[1] = test system: HL-60 acute myeloid leukemia cells; experiment: Antiproliferative activity, HL-60 cells; format: cell-based, human; conditions: Homo sapiens, HL-60, 72 h, HL-60, 72 h incubation
Experimental: (§1) All prepared imidazo[4,5-b]pyridines were tested for their antiproliferative activity against the following cancer cell lines: LN-229—glioblastoma, Capan-1—pancreatic adenocarcinoma, HCT-116—colorectal carcinoma, NCI-H460—lung carcinoma, DND-41—acute lymphoblastic leukemia, HL-60—acute myeloid leukemia, K-562—chronic myeloid leukemia, and Z-138—non-Hodgkin lymphoma cancer cells. An overview of the results is presented in Table 2 as IC50 values (50% inhibitory concentration). An established antitumor drug, etoposide (ETO), was included for comparison.
(§2) For proliferation assays, the human cancer cell lines used in this manuscript, namely Capan-1, HCT-116, NCI-H460, LN-229, HL-60, K-562, and Z-138, were acquired from the American Type Culture Collection (ATCC, Manassas, VA, USA), while the DND-41 cell line was purchased from the Deutsche Sammlung von Mikroorganismen und Zellkulturen (DSMZ Leibniz-Institut, Braunschweig, Germany). Culture media were purchased from Gibco (Gibco Life Technologies, Merelbeke, Belgium) and supplemented with 10% fetal bovine serum (HyClone, Cytiva, Marlborough, MA, USA). Adherent cell lines LN-229, HCT-116, NCI-H460, and Capan-1 cells were seeded in 384-well tissue culture plates (Greiner, Kremsmünster, Austria) at a density between 500 and 1500 cells per well (500 cells per well for Capan-1, 1000 cells per well for LN-229 and HCT-116, and 1500 cells per well for NCI-H460). The cells were treated with seven different concentrations of the test compounds in a 5-fold dilution series ranging from 100 to 0.006 µM after overnight incubation. Suspension cell lines HL-60, K-562, Z-138, and DND-41 were seeded at densities ranging from 2500 to 5500 cells per well (2500 cells per well for HL-60, K-562, and Z-138, and 5500 cells per well for DND-41) in 384-well culture plates containing the test compounds at the same concentration points. All conditions were incubated for 72 h before measuring the cell viability by the CellTiter 96® AQueous Non-Radioactive Cell Proliferation Assay (Promega, Madison, WA, USA) according to the manufacturer’s instructions. After 3 h, absorbance of all conditions was measured at 490 nm using a SpectraMax Plus 384 (Molecular Devices, San Jose, CA, USA), and the OD values were used to calculate the 50% inhibitory concentration (IC50). Compounds were tested in two independent experiments.

host cell lines = host cell lines of the antiviral assays
[2] = test system: normal peripheral blood mononuclear cells (PBMC); experiment: Toxicity in normal peripheral blood mononuclear cells; format: cell-based
Description: Figure 6 Toxicity of compounds 13 and 19 in normal cells.

human cancer cell lines = experiment: Antiproliferative activity, panel of human cancer cell lines; format: cell-based
Experimental: as §1, §2

[3] = test system: HCT-116 colorectal carcinoma cells; experiment: Antiproliferative activity, HCT-116 cells; format: cell-based, human; conditions: Homo sapiens, HCT-116, 72 h, HCT-116, 72 h incubation
Experimental: as §1, §2

[4] = test system: Z-138 non-Hodgkin lymphoma cells; experiment: Antiproliferative activity, Z-138 cells; format: cell-based, human; conditions: Homo sapiens, Z-138, 72 h, Z-138, 72 h incubation
Experimental: as §1, §2

[5] = test system: K-562 chronic myeloid leukemia cells; experiment: Antiproliferative activity, K-562 cells; format: cell-based, human; conditions: Homo sapiens, K562, 72 h, K-562, 72 h incubation
Experimental: as §1, §2

[6] = test system: NCI-H460 lung carcinoma cells; experiment: Antiproliferative activity, NCI-H460 cells; format: cell-based, human; conditions: Homo sapiens, NCI-H460, 72 h, NCI-H460, 72 h incubation
Experimental: as §1, §2

[7] = test system: LN-229 glioblastoma cells; experiment: Antiproliferative activity, LN-229 cells; format: cell-based, human; conditions: Homo sapiens, LN-229, 72 h, LN-229, 72 h incubation
Experimental: as §1, §2

[8] = test system: DND-41 acute lymphoblastic leukemia cells; experiment: Antiproliferative activity, DND-41 cells; format: cell-based, human; conditions: Homo sapiens, DND41, 72 h, DND-41, 72 h incubation
Experimental: as §1, §2

[9] = test system: Capan-1 pancreatic adenocarcinoma cells; experiment: Antiproliferative activity, Capan-1 cells; format: cell-based, human; conditions: Homo sapiens, CAPAN-1, 72 h, Capan-1, 72 h incubation
Experimental: as §1, §2

[10] = test system: respiratory syncytial virus (RSV) A; experiment: Antiviral CPE assay, RSV in Hep-2; format: cell-based; conditions: human respiratory syncytial virus; Hep-2 host cells
in vitro [11] = conditions: dog
in vitro [12] = conditions: human
in vitro [13] = conditions: human; remark: listed apart in the source
in vitro [14] = conditions: African green monkey
[15] = test system: human coronavirus HCoV-OC43; experiment: Antiviral CPE assay, HCoV-OC43 in HEL 299; format: cell-based; conditions: HEL 299 host cells
Zika virus (ZIKV) = experiment: Antiviral CPE assay, ZIKV in VeroE6; format: cell-based; conditions: VeroE6 host cells
in vitro [16] = conditions: human; remark: listed apart in the source
[17] = test system: herpes simplex virus-1 (HSV-1 KOS); experiment: Antiviral CPE assay, HSV-1 in HEL 299; format: cell-based; conditions: HEL 299 host cells
[18] = test system: human coronavirus HCoV-NL63; experiment: Antiviral CPE assay, HCoV-NL63 in Hep3B; format: cell-based; conditions: Hep3B host cells
[19] = test system: human coronavirus HCoV-229E; experiment: organism not typed; format: cell-based, human coronavirus 229E; conditions: HEL 299 host cells; read-out: Antiviral Activity (EC50) HCoV 229E HEL 299
yellow fever virus (YFV) = experiment: microbe, parasite or virus in culture; format: cell-based
[20] = test system: Semliki Forest virus (SFV); experiment: Antiviral CPE assay, SFV in VeroE6; format: cell-based; conditions: VeroE6 host cells
[21] = test system: influenza A/H3N2 (A/HK/7/87); experiment: Antiviral CPE assay, influenza A/H3N2 in MDCK; format: cell-based; conditions: Influenza A virus, MDCK host cells
[22] = test system: influenza B (B/Ned/537/05); experiment: Antiviral CPE assay, influenza B in MDCK; format: cell-based; conditions: Influenza B virus; MDCK host cells
Sindbis virus (SINDV) = experiment: Antiviral CPE assay, SINDV in VeroE6; format: cell-based; conditions: VeroE6 host cells
[23] = test system: influenza A/H1N1 (A/Ned/378/05); experiment: Antiviral CPE assay, influenza A/H1N1 in MDCK; format: cell-based; conditions: Influenza A virus, MDCK host cells
NCI-H460 cells = experiment: Cell cycle progression, NCI-H460 cells; format: cell-based, human
Description: (§3) Lastly, the effects of lead compound 19 on the cell cycle progression of three cancer cell lines, namely HEp-2, NCI-H460, and LN-229, were explored.
(§4) Figure 7 The effects of lead compound 19 on cell cycle progression of NCI-H460 (left), LN-229 (middle), and Hep-2 (right) cells.

HEp-2 cells = experiment: Cell cycle progression, HEp-2 cells; format: cell-based, human
Description: as §3, §4

LN-229 cells = experiment: Cell cycle progression, LN-229 cells; format: cell-based, human
Description: as §3, §4

VeroE6 cells = conditions: read-out: Cytotoxicity (CC50) Vero E6; uninfected Vero E6 cells
HEL 299 cells = conditions: read-out: Cytotoxicity (CC50) HEL 299; uninfected HEL 299 cells
[24] = most/majority of the tested cancer cell lines, read-out: IC50 range against most of the tested cell lines
[25] = Yellow fever virus, Vero C1008, read-out: Antiviral Activity (EC50) YFV VeroE6

SMILES | IC50 [1] [µM] | IC50 [3] [µM] | IC50 [4] [µM] | IC50 [5] [µM] | IC50 [6] [µM] | IC50 [7] [µM] | IC50 [8] [µM] | IC50 [9] [µM] | EC50 [10] [µM] | EC50 ([15]; Betacoronavirus 1, OC43) [µM] | EC50 ([17]; Human alphaherpesvirus 1) [µM] | EC50 [18] [µM] | EC50 [19] [µM] | further results
Oc1ccc(-c2cnc3[nH]c(-c4ccccc4)nc3c2)cc1 [Compound 13, 4-(2-phenyl-3H-imidazo [4,5-b]pyridin-6-yl)phenol] | 1.65 | 3.94 | 1.87 | 3.42 | 4.25 | 4.1 | 4.25 | 1.5 | – | – | – | – | – | Cytotoxicity on host cell lines (host cell lines): cytotoxicity was observed on all host cell lines, with the exception of the non-cancerous HEL 229 cells; Effect on viability of PBMC ([2]; 10 µM): little to no effect; Effect on viability of PBMC ([2]; 100 µM (highest dose tested)): negatively impacted the viability; IC50 (human cancer cell lines; Capan-1, HL-60 and Z-138 cell lines, read-out: IC50 range, particularly strong inhibition): 1.5 to 1.87 µM; IC50 (human cancer cell lines; [24]): 1.45 to 4.25 µM
N#Cc1ccc(-c2cnc3[nH]c(-c4ccccc4)nc3c2)cc1 [Compound 15, 4-(2-phenyl-3H-imidazo [4,5-b]pyridin-6-yl)benzonitrile] | 37.2 | > 100 | 34.4 | > 100 | > 100 | 79.2 | > 100 | 10.8 | > 50 | > 50 | > 50 | > 50 | 31.3 | CC50 (in vitro [11]): > 50 µM; CC50 (in vitro [12]): > 50 µM; CC50 (in vitro [13]): > 50 µM; CC50 (in vitro [14]): > 50 µM; EC50 (Zika virus (ZIKV); Zika virus, Vero C1008): > 50 µM; CC50 (in vitro [16]): > 50 µM; EC50 (yellow fever virus (YFV); [25]): > 50 µM; EC50 ([20]; Semliki Forest virus, Vero C1008): > 50 µM; EC50 [21]: 39.5 µM; EC50 [22]: 34.5 µM; EC50 (Sindbis virus (SINDV); Sindbis virus, Vero C1008): > 50 µM; EC50 [23]: 33.5 µM
Cn1c(-c2ccccc2)nc2cc(-c3ccc(O)cc3)cnc21 [Compound 19, 4-(3-methyl-2-phenyl-3H-imidazo [4,5-b]pyridin-6-yl)phenol] | 3.3 | 2.32 | 1.45 | 1.5 | 2.83 | 1.77 | 1.57 | 1.9 | – | – | – | – | – | Cytotoxicity on host cell lines (host cell lines): cytotoxicity was observed on all host cell lines, with the exception of the non-cancerous HEL 229 cells; Effect on cell cycle progression (NCI-H460 cells): strong accumulation of cells in the G2/M phase; Effect on viability of PBMC ([2]; 10 µM): little to no effect; Effect on viability of PBMC ([2]; 100 µM (highest dose tested)): negatively impacted the viability; Effect on cell cycle progression (HEp-2 cells): strong accumulation of cells in the G2/M phase; IC50 (human cancer cell lines; Capan-1, LN-229, DND-41, K-562 and Z-138 cell lines, read-out: IC50 range, lowest inhibitory concentrations): 1.45 to 1.9 µM; IC50 (human cancer cell lines; [24]): 1.45 to 4.25 µM; Effect on cell cycle progression (LN-229 cells): strong accumulation of cells in the G2/M phase
Cn1c(-c2ccccc2)nc2cc(-c3ccc(C(N)=O)cc3)cnc21 [Compound 22, 4-(3-methyl-2-phenyl-3H-imidazo[4,5-b]pyridin-6-yl)benzamide] | 70.9 | > 100 | 58.1 | > 100 | > 100 | > 100 | > 100 | > 100 | – | – | – | – | – | melting point: > 300 °C
CCOC(=O)[C@H]1O[C@@H]1C(=O)N[C@@H](CC(C)C)C(=O)NCCC(C)C [Compound E64d] | – | – | – | – | – | – | – | – | – | – | – | – | 2 | EC50 [15]: 3.9 µM; EC50 (Zika virus (ZIKV)): 27.8 µM; CC50 (VeroE6 cells): > 100 µM; EC50 [17]: > 100 µM; CC50 (HEL 299 cells): > 100 µM; EC50 (yellow fever virus (YFV); VeroE6 host cells, read-out: Antiviral Activity (EC50) YFV VeroE6): > 100 µM; EC50 [20]: > 100 µM; EC50 (Sindbis virus (SINDV)): > 100 µM
CCC(CC)COC(=O)[C@H](C)N[P@](=O)(OC[C@H]1O[C@@](C#N)(c2ccc3c(N)ncnn23)[C@H](O)[C@@H]1O)Oc1ccccc1 [Remdesivir, remdesivir] | – | – | – | – | – | – | – | – | 0.006 | 0.06 | > 10 | 0.2 | 0.2 | CC50 (in vitro [12]): > 10 µM; CC50 (in vitro [13]): > 10 µM; CC50 (in vitro [16]): > 10 µM
NC(=O)c1ncn([C@@H]2O[C@H](CO)[C@@H](O)[C@H]2O)n1 [Ribavirin, ribavirin] | – | – | – | – | – | – | – | – | 35.7 | 97.6 | 217 | 45.8 | 83.3 | CC50 (in vitro [11]): > 250 µM; CC50 (in vitro [14]): > 250 µM; EC50 (yellow fever virus (YFV); [25]): 235 µM; EC50 [21]: 12.3 µM; EC50 [22]: 5.2 µM; EC50 [23]: 6.6 µM
